Consider 13 compounds from PubChem BioAssay (NCI).

The structures appear in SMILES notation.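 Test compounds were applied to cells in 96-well plates for 48 hours at 5 doses. Here, GI50 denotes the concentration required for 50% inhibition of growth. Definition used: TGI = concentration required for complete inhibition of growth.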

What all share (test): DTP human tumour cell line panel, 48 h
Assay [1] deals with HCT-116 colon.
Assay [2] relates to UACC-62 melanoma.
For assay [3], the system named is SK-MEL-28 melanoma.
For assay [4], the system named is HOP-92 NSCLC.
In assay [5] the test system is NCI-H522 lung.
The test system of assay [6] is A549 NSCLC.
The test system of assay [7] is A498 renal.
For assay [8], the system named is SNB-19 CNS.
The test system of assay [9] is SK-OV-3 ovarian.
The subject of assay [10] is UACC-257 melanoma.

As a reminder, the GI50 is the concentration giving 50% growth inhibition. For orientation: TGI means the concentration giving total growth inhibition. As to `CCC#CC[C@H](O)C/C=C1/C(=O)C=C[C@@H]1C/C=C\CCCC(=O)OC`, the GI50 is 235 nM in assay [1]; 1040 nM in [2]; 1120 nM in assay [3]; 1520 nM in [4]; 673 nM in assay [5]; 1600 nM in assay [6]. The GI50 is 6820 nM in [7], 3290 nM in assay [8], 3210 nM in assay [9] and 856 nM in [10]. Further, the TGI in [1] was found to be 1100 nM; in assay [2] it was 2820 nM; in [3] it was 3250 nM; in [4] it was 5810 nM; in assay [5], 1680 nM; in assay [6] it was 5520 nM. The TGI stood at 13700 nM in assay [7], 10300 nM in assay [8], 10200 nM in [9] and 2430 nM in assay [10].

For `O=C1/C(=C/c2ccc(F)c(F)c2)CN(C(=O)C(Cl)Cl)C/C1=C\c1ccc(F)c(F)c1`, the GI50 in assay [1] was 32.6 nM; in assay [2] it was 172 nM; in assay [3], 208 nM; in assay [4], 211 nM; in assay [5], 166 nM; in assay [6] it was 262 nM. The concentration for 50% growth inhibition (GI50) is 183 nM in assay [7], 78.2 nM in assay [8], 492 nM in assay [9] and 259 nM in assay [10]. For the same compound, the TGI in assay [1] stood at 120 nM; in [2], 365 nM; in assay [3], 513 nM; in [4] it was 629 nM; in assay [5], 503 nM; in assay [6], 1090 nM. The TGI amounted to 550 nM in [7], 274 nM in [8], 1780 nM in [9] and 888 nM in assay [10].

For the compound `CC(CN1CC(=O)NC(=O)C1)N1CC(=O)NC(=O)C1` (stereo not given), the TGI is greater than 750000 nM in [1]; greater than 686000 nM in [2]; greater than 750000 nM in assay [3]; 732000 nM in assay [4]; greater than 724000 nM in assay [5]; greater than 750000 nM in assay [6]. For the same compound, the TGI was greater than 750000 nM in [7], greater than 750000 nM in [8], greater than 672000 nM in assay [9] and greater than 750000 nM in assay [10].

Consider `O=C1C=CC(=O)C2C1Cc1ccccc1C2c1ccccc1` (stereo not given), for which the TGI was greater than 100000 nM in assay [1]; greater than 100000 nM in assay [2]; greater than 100000 nM in assay [3]; 85000 nM in [4]; 35200 nM in assay [5]; greater than 100000 nM in assay [6]. The TGI in assay [7] was 73100 nM; in assay [8] it was greater than 100000 nM; in assay [9], greater than 100000 nM; in assay [10], 70200 nM.

On to `C=C(C)[C@@H]1CC[C@]2(COCCCNCCCN)CC[C@]3(C)[C@H](CC[C@@H]4[C@@]5(C)CC[C@H](OCCCN)C(C)(C)[C@@H]5CC[C@]43C)[C@@H]12`, for which the GI50 in assay [1] is 898 nM; in assay [2], 914 nM; in assay [3], 876 nM; in assay [4] it was 2100 nM; in assay [5], 868 nM; in assay [6] it was 909 nM. Moreover, the GI50 was 7220 nM in assay [7], 913 nM in assay [8], 1390 nM in [9] and 914 nM in assay [10]. For the same compound, the TGI came to 1670 nM in [1]; 1670 nM in [2]; 1600 nM in [3]; 9760 nM in [4]; 1720 nM in assay [5]; 1710 nM in [6]. Moreover, the TGI was determined as 14400 nM in [7], 1660 nM in [8], 4280 nM in assay [9] and 1750 nM in [10].

As for `CCC[CH2][Sn]([CH2]CCC)([CH2]CCC)[O]C(=O)C(OC(C)=O)c1ccccc1` (stereo not given), the GI50 in assay [1] was 136 nM; in assay [2], 126 nM; in assay [3], 142 nM; in [4], 40.9 nM; in [5], 144 nM; in [6] it was 143 nM. Besides, the GI50 in assay [7] was 154 nM; in assay [8] it was 176 nM; in assay [9], 120 nM; in assay [10], 149 nM. Also, the TGI in assay [1] came to 276 nM; in assay [2], 255 nM; in assay [3], 274 nM; in assay [4] it was 222 nM; in [5] it was 287 nM; in [6], 309 nM. Further, the TGI in assay [7] was determined as 305 nM; in assay [8], 322 nM; in [9] it was 273 nM; in assay [10] it was 284 nM.

As to `Cn1cnc([N+](=O)[O-])c1Sc1nnnn1C`, the TGI was 28000 nM in assay [1]; 32000 nM in assay [2]; 27300 nM in assay [3]; 25200 nM in assay [4]; 20500 nM in [5]; greater than 100000 nM in assay [6]. Further, the TGI in [7] is greater than 100000 nM; in assay [8] it was greater than 100000 nM; in assay [9] it was greater than 100000 nM; in assay [10] it was 29800 nM.

As to `Cc1cn(CCC(N)C(=O)O)c(=O)[nH]c1=O` (stereo not given), the TGI in [1], in assay [2], in [3], in [4], in assay [5] and in [6] was greater than 100000 nM each time. The TGI in assay [7], in [8], in assay [9] and in assay [10] was greater than 100000 nM throughout.

Turning to `CC(CN(C)C)S(=O)(=O)c1ccc(-c2cnc(N)c(C(=O)Nc3ccccc3)n2)cc1` (stereo not given), the GI50 in assay [1] is 4880 nM; in assay [2] it was 6280 nM; in assay [3] it was 7220 nM; in assay [4], 6860 nM; in assay [5], 17500 nM; in assay [6], 2860 nM. The GI50 was 2410 nM in [7], 16300 nM in assay [8], 6040 nM in [9] and 2040 nM in assay [10]. The TGI is 21200 nM in assay [1]; 21600 nM in assay [2]; 21400 nM in assay [3]; 34700 nM in [4]; 35900 nM in assay [5]; greater than 46100 nM in assay [6]. In addition, the TGI is 9020 nM in assay [7], 75100 nM in [8], greater than 54500 nM in [9] and 5060 nM in assay [10].

As for `Cc1c(N)nc([C@H](CC(N)=O)NC[C@H](N)C(N)=O)nc1C(=O)N[C@H](C(=O)N[C@H](C)[C@@H](O)CC(=O)N[C@H](C(=O)NC(O[C@@H]1O[C@@H](C)[C@@H](N)[C@@H](O)[C@H]1O)C(O)c1nc(-c2nc(C(=O)NCCCCN)cs2)cs1)[C@@H](C)O)[C@@H](O[C@@H]1O[C@@H](CO)[C@@H](O)[C@H](O)[C@@H]1O[C@H]1O[C@H](CO)[C@@H](O)[C@H](OC(N)=O)[C@@H]1O)c1c[nH]cn1` (stereo not given in full), the TGI in assay [1], in assay [2], in assay [3], in assay [4], in [5] and in [6] was greater than 50000 nM in each case. For the same compound, the TGI in assay [7], in [8], in [9] and in [10] was greater than 50000 nM each time.

Consider `O=P(O)(O)OCC1OC(n2cnc3c(NCc4ccco4)ncnc32)C(O)C1O` (stereo not given), for which the 50% growth inhibitory concentration (GI50) is 410 nM in assay [1]; 2710 nM in assay [2]; 16200 nM in assay [3]; 1360 nM in assay [4]; 1140 nM in assay [5]; 2730 nM in assay [6]. In addition, the GI50 was 3320 nM in assay [7], 4180 nM in assay [8], 2340 nM in [9] and greater than 100000 nM in assay [10]. For the same compound, the TGI in assay [1] is 1850 nM; in assay [2], 12500 nM; in [3] it was greater than 100000 nM; in assay [4], 13400 nM; in assay [5], 19000 nM; in assay [6], greater than 37800 nM. Besides, the TGI in assay [7] is 11700 nM; in assay [8], greater than 100000 nM; in assay [9] it was 8730 nM; in assay [10], greater than 100000 nM.

Turning to `O=C(O)C1CCN(Cc2oc(CO)cc(=O)c2O)C1` (stereo not given), the TGI in [1], in assay [2], in [3], in assay [4], in [5] and in assay [6] was greater than 100000 nM in each case. The TGI in assay [7], in assay [8], in assay [9] and in assay [10] was greater than 100000 nM each time.

Consider `Nc1ncnc2c1c(-c1ccc(Oc3ccccc3)cc1)nn2C[C@H]1SSC[C@@H]1O`, for which the GI50 in [1] was 332 nM; in assay [2] it was 276 nM; in [3] it was 147 nM; in [4], 1620 nM; in assay [5], 3850 nM; in assay [6], 519 nM. Also, the GI50 in assay [7] is 1660 nM; in assay [8] it was 1400 nM; in assay [9] it was 593 nM; in [10], 374 nM. The TGI amounted to 12300 nM in assay [1]; 939 nM in assay [2]; 403 nM in assay [3]; 7150 nM in assay [4]; 14000 nM in [5]; 6810 nM in assay [6]. The TGI in assay [7] worked out at 4440 nM; in [8], 12000 nM; in assay [9], 3710 nM; in assay [10], 16100 nM.
